Experimental data from patent US5236934A, “1,2,3,4-tetrahydroisoquinolines useful in the treatment of CNS disorders” (E. I. Du Pont de Nemours and Company, priority 1992, dated 1993).
Several values for one entry are separate records, joined by “and”; a condition that tells them apart may be missing. Equal entries are not always repeated. Where two headings read alike, the source gives them in different places. Values belong to the molecule of their own block, whether it stands above or below them.

Tests used:
[1] = molecular target: T1, AT2 receptor (Rattus norvegicus, UniProt P35351); test: [125I]AII binding to AT2 receptor, rat adrenal cortical microsomes, in the presence of 10^-5 M DuP 753 (DuP […]-insensitive sites)
T1 construct: AT1 and AT2 receptor subtypes in rat adrenal cortex microsomes; from tissue; host or cells: rat adrenal cortical microsomes (13,000-102,000 g)
T1 sequence (P35351 1-363): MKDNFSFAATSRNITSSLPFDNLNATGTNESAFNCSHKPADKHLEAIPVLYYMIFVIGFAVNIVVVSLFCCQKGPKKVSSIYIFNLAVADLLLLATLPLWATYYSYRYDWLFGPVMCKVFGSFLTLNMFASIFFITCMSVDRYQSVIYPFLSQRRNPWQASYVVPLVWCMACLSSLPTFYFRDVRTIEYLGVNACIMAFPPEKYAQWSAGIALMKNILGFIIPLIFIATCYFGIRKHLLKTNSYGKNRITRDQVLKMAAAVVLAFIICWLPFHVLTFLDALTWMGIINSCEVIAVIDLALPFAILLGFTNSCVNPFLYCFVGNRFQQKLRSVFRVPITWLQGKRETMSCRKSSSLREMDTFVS
Description: (§1) Procedures for the preparation of adrenal cortical microsomes and details of the binding assays are described in Chiu et al. (1989) J. Pharmacol. Exp. Ther. 250:867-874. The same procedures and conditions were used for adrenal medullary microsomes. […] After 60 min. of incubation, the reaction was terminated by addition of cold assay buffer. The bound and free radioactivity were rapidly separated through glass-fiber filters, and the trapped radioactivity was determined by gamma counting.

[2] = tested on: AT1 receptor; test: [125I]AII binding to AT1 receptor, rat adrenal cortical microsomes, in the presence of 10^-5 M EXP-655 (DuP 753-sensitive sites)
Description: as §1

[3] = tested on: AII receptor subtypes of rat adrenal cortical membranes; test: [125I]AII binding to rat adrenal cortical membranes with and without DTT pretreatment
Description: 102:685-696, except the above binding assay conditions were used.

[4] = tested on: AII receptors of rat adrenal medulla; test: [125I]AII binding to rat adrenal medullary microsomes; settings: rat adrenal medullary microsomes; for binding resistant to displacement: of total binding, 60 min
Description: as §1

[5] = tested on: AII receptors of rat adrenal cortex; assay type: binding; settings: autoradiography; DuP 753 or EXP-655 at 10^-6 M
Description: (§2) Fresh tissue was frozen on powdered dry ice and stored at -70° C. until used. Sections were cut at 15 microns and thaw mounted onto gelatin subbed slides. […] Slides were placed under X-ray film (Kodak XAR-5) and exposed for 11/2 days before processing the film to produce the film autoradiograms. The slides were then fixed with paraformaldehyde vapor at 80° C. for two hours, dried under air, delipidated, and dipped in emulsion (Kodak NTB-2). The coated slides were exposed for 4-5 weeks, developed with Kodak D-19 and counter-stained with hemotoxylin-eosin to view the histology.

[6] = molecular target: T2, AII receptors of rat adrenal medulla (Rattus norvegicus, UniProt P35351); test: [125I]AII binding to rat adrenal medullary microsomes; parameters: from tissue; host or cells: rat adrenal medullary microsomes; settings: rat adrenal medulla
T2 sequence (P35351 1-363): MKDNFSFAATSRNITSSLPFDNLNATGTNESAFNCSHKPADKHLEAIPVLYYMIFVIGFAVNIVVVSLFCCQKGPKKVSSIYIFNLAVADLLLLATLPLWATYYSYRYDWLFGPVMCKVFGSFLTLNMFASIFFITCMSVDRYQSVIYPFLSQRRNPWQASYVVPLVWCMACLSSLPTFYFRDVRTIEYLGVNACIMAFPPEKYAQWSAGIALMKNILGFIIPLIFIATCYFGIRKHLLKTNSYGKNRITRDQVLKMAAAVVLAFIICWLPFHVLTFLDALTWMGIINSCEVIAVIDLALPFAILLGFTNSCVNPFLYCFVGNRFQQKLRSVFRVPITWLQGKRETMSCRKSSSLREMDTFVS
Description: as §1

[7] = molecular target: T2, AII receptors of rat adrenal medulla; settings: autoradiography; DuP 753 or EXP-655 at 10^-6 M
Description: as §2

[8] = tested on: AII binding sites of rat aortic smooth muscle cells; test: AII receptor binding in rat aortic smooth muscle cells
[9] = tested on: AII receptors of rat adrenal cortex; test: Total specific [125I]AII binding to rat adrenal cortical microsomes
Description: After 60 min. of incubation, the reaction was terminated by addition of cold assay buffer. The bound and free radioactivity were rapidly separated through glass-fiber filters, and the trapped radioactivity was determined by gamma counting.

[10] = tested on: AII binding sites in the brain; test: Distribution of AII binding sites in brain slices
Description: as §2

[11] = reported in U.S. Pat. No. 4,812,462; cited from earlier work
[12] = tested on: collagenase activity in cultured cardiac fibroblasts; settings: cited from earlier work
[13] = tested on: potassium current in cultured neurones; settings: cited from earlier work
[14] = tested on: chick chorioallantoic membrane; settings: cited from earlier work
[15] = tested on: pial arterial dilation; settings: rat cranial window, cited from earlier work
[16] = Blood pressure lowering in hypertensive animals (renal artery-ligated hypertensive rats); assay type: in vivo, rat; settings: doses up to 30 mg/kg, IV
[17] = tested on: AII receptors of rat adrenal cortex; settings: reported in U.S. Pat. No. 4,812,462; cited from earlier work
[18] = tested on: rabbit aorta; test: AII-induced rabbit aortic contractions; settings: at concentrations of up to 10^-5 M
[19] = tested on: trypsin activated collagenase in rat heart myocytes; settings: cited from earlier work
[20] = in vivo; cited from earlier work
[21] = cited from earlier work; for effect on avoidance learning: IVT
[22] = cited from earlier work
[23] = injected into the dorsal neostriatum; cited from earlier work
[24] = tested on: potassium stimulated release of [3H]ACh; settings: in vitro; cited from earlier work
[25] = rat adrenal cortex microsomes, in the presence of 10^-5 M EXP-655, read-out: IC50 AT1

sensitivity of AT2 receptor to DTT [1]: resistant to DTT inactivation
Molecule: O[C@H](CS)[C@H](O)CS (racemic) [DTT, dithiothreitol]
sensitivity of AT1 receptor to DTT [2]: particularly sensitive to inactivation by DTT

Molecule: CCCCc1nc(Cl)c(CO)n1Cc1ccc(-c2ccccc2-c2nn[nH]n2)cc1 [DuP 753]
effect of DTT on inhibition of AII binding ([3]; 5 mM DTT): essentially abolished in the presence of DTT
inhibition of binding ([4]; below 1×10^-6 M): 10%
binding resistant to displacement [4]: About 90%
labeling over the adrenal cortex [5]: significantly reduced
inhibition of AII binding [6]: essentially inactive as an antagonist
labeling of the adrenal medulla [7]: not appreciably affected
sensitivity of AII binding sites, rat aortic smooth muscle cells [8]: primarily the DuP 753-sensitive AII binding sites (AT1)
plateau of constant binding ([9]; over a two-log concentration increase, 60 min): about 28 % of the total receptor-bound AII
inhibition of total AII binding ([9]; rat adrenal cortex): 80%
IC50 ([9]; rat adrenal cortex, read-out: IC50 on the sensitive sites): ~5 nM
IC50 ([9]; rat adrenal cortical microsomes, DuP 753-sensitive site, read-out: approximated IC50, first site of biphasic displacement): ~5 nM

Molecule: Cc1cc(Cn2cnc3c2CC(C(=O)O)N(C(=O)C(c2ccccc2)c2ccccc2)C3)ccc1N (stereo not shown) [EXP-655]
sensitivity of AII binding sites in the brain [10]: the majority of AII binding sites in the brain are DTT-insensitive, EXP-655-sensitive
antihypertensive activity as reported [11]: antihypertensive agent
block of effect to inhibit collagenase activity [12]: shown to block
binding resistant to displacement [4]: 10%
labeling over the adrenal cortex [5]: no apparent effect
IC50 [2, 25]: ~300000 nM and 300000 nM
IC50 ([2]; rat adrenal cortex, read-out: inhibitory constant IC50, AT1 site): ~300000 nM
block of effect to increase potassium current [13]: shown to block
block of angiotensin II-induced increase in microvascular density / angiogenesis [14]: shown to block
inhibition of AII binding [6]: 90%
labeling of the adrenal medulla [7]: almost totally eliminated
block of pial arterial/arteriolar dilation ([15]; listed as EXP 655): shown to block
lowering blood pressure [16]: inactive
affinity for AII receptors as reported [17]: high affinity for AII receptors
inhibition of the total specific AII binding ([9]; at 3×10^-5 M, rat adrenal cortical microsomes): 20%
inhibition of total AII binding ([9]; rat adrenal cortex): 20%
antagonizing AII-induced rabbit aortic contractions [18]: inactive

IC50 [1]: 60 nM
IC50 [2, 25]: > 10000 nM
Molecule: COc1ccc(-c2cccc3c2CC(C(=O)O)N(C(=O)C(c2ccccc2)c2ccccc2)C3)cc1C (stereo not shown) [Example 25]

IC50 [1]: 70 nM
IC50 [2, 25]: > 10000 nM
Molecule: O=C(O)C1Cc2cc(Oc3ccccc3)ccc2CN1C(=O)C(c1ccccc1)c1ccccc1 (stereo not shown) [Example 32, 2-Diphenylacetyl-6-phenoxy-1,2,3,4-tetrahydroisoquinoline-3-carboxylic acid]

Molecule: Cc1cc(Cn2cnc3c2CC(C(=O)O)N(C(=O)C(c2ccccc2)c2ccccc2)C3)ccc1N (stereo not shown) [PD123177]
block of angiotensin II induced inhibition of trypsin activated collagenase [19]: block the angiotensin II induced inhibition of trypsin activated collagenase
block of pial arterial/arteriolar dilation [15]: block the pial arterial dilation

Molecule: NCCCC[C@H](OP(=O)(O)CCCCc1ccccc1)C(=O)N1CCC[C@H]1C(=O)O [SQ 29852]
memory of previously learned tasks [20]: protective effects on memory of previously learned tasks

effect of DTT on inhibition of AII binding ([3]; 5 mM DTT): not significantly altered by DTT
preference for one AII receptor subtype relative to the other ([2]; AT1 vs AT2): no preference
concentration giving complete displacement of AII ([9]; rat adrenal cortical microsomes): 100 nM
IC50 ([9]; rat adrenal cortical microsomes, read-out: IC50, monophasic): 1 nM
Molecule: CNCC(=O)N[C@@H](CCCN=C(N)N)C(=O)N[C@H](C(=O)N[C@@H](Cc1ccc(O)cc1)C(=O)N[C@H](C(=O)N[C@@H](Cc1cnc[nH]1)C(=O)N1CCC[C@H]1C(=O)N[C@@H](C)C(=O)O)C(C)C)C(C)C [Saralasin]

Molecule: C[C@H](CS)C(=O)N1CCC[C@H]1C(=O)O [captopril]
effect on avoidance learning [21]: prevented the renin-induced avoidance disruption
scopolamine-induced disruption of performance ([22]; daily treatment): prevented
light/dark habituation performance, rate of acquisition ([22]; subchronic treatment): increased the rate of acquisition

Molecule: NC(=O)[C@@H]1CCCN1C(=O)[C@H](Cc1cnc[nH]1)NC(=O)[C@@H]1CCC(=O)N1 [thyrotropin releasing hormone]
effect on retention of PA response [23]: no effect

Molecule: AI: AI (compared with AII) (DRVYIHPFHL; Angiotensin-1; UniProt P01019 25-34, looked up)
effect on potassium-stimulated release of ACh [24]: not AI

Molecule: AII: octapeptide hormone which is a component of the renin-angiotensin system (DRVYIHPF; Angiotensin-2; UniProt P01019 25-32, looked up)
effect on retention of PA response [23]: disruption in retention of a PA response
enhancement of inhibitory potency by DTT ([3]; 5 mM DTT): 2.5 fold
IC50 ([3]; read-out: IC50 in the absence of DTT, without DTT): 1 nM
labeling over the adrenal cortex [5]: potently inhibited the labeling
labeling of the adrenal medulla [7]: potently inhibited the labeling
effect on basal levels of ACh release [24]: without effects on basal levels
effect on potassium-stimulated release of ACh [24]: reduced potassium-stimulated release of ACh

Molecule: CGP42112A
block of angiotensin II-induced increase in microvascular density / angiogenesis [14]: block the increase in microvascular density

Molecule: [1-sarcosine, 8-threonine]angiotensin II
effect on potassium-stimulated release of ACh [24]: antagonized

Molecule: lysine-8-vasopressin
effect on retention of PA response [23]: no effect

B1: renin: an enzyme involved in endogenous AII biosynthesis (protein, UniProt P00797 67-406, looked up)
Renin: LTLGNTTSSVILTNYMDTQYYGEIGIGTPPQTFKVVFDTGSSNVWVPSSKCSRLYTACVYHKLFDASDSSSYKHNGTELTLRYSTGTVSGFLSQDIITVGGITVTQMFGEVTEMPALPFMLAEFDGVVGMGFIEQAIGRVTPIFDNIISQGVLKEDVFSFYYNRDSENSQSLGGQIVLGGSDPQHYEGNFHYINLIKTGVWQIQMKGVSVGSSTLLCEDGCLALVDTGASYISGSTSSIEKLMEALGAKKRLFDYVVKCNEGPTLPDISFHLGGKEYTLTSADYVFQESYSSKKLCTLAIHAMDIPPPTGPTWALGATFIRKFYTEFDRRNNRIGFALAR
effect on avoidance learning [21]: disruption of avoidance learning
AII level in CSF after renin ([21]; increased from 40, renin IVT): about 5000 fmol per mL
